Measurements from the Kinase Knowledgebase extract (Sharma et al. 2016).

Key:
Assay in all cases: Enzyme Assay
[1] = target: PIK3CG (human) (UniProt P48736)
[2] = target: PIK3CD (Human) (UniProt O00329)
[3] = target: PIK3CA (human) (UniProt P42336)
Chain of PIK3CA (human) (P42336 whole entry, looked up): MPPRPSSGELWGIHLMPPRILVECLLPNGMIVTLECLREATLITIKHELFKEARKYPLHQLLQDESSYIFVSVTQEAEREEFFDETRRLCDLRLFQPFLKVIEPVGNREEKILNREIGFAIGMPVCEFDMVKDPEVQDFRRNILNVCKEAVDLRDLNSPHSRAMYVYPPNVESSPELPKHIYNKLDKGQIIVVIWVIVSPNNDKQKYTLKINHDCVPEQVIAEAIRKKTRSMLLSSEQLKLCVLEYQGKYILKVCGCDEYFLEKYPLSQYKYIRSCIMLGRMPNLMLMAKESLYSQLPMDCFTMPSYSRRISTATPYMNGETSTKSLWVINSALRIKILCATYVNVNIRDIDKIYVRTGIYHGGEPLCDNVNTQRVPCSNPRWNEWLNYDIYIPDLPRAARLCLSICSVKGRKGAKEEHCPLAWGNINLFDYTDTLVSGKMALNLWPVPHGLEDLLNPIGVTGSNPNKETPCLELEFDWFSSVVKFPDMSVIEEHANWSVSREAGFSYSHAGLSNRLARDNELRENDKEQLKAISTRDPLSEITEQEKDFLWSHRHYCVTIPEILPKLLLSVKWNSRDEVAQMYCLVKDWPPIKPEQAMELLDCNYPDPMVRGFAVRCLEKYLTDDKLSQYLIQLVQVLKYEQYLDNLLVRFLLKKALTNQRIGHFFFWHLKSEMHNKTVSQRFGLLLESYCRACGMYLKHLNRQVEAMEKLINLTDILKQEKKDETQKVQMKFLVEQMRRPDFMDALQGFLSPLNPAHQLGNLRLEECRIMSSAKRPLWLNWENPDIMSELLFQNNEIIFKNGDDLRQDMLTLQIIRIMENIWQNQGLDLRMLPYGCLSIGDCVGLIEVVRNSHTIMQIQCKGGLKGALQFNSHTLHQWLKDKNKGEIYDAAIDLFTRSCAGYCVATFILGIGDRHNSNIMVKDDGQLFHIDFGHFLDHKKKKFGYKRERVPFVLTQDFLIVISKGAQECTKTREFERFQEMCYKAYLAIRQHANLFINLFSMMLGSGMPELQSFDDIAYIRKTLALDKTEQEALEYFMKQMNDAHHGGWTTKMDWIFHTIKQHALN

Chain of PIK3CD (Human) (O00329 whole entry, looked up): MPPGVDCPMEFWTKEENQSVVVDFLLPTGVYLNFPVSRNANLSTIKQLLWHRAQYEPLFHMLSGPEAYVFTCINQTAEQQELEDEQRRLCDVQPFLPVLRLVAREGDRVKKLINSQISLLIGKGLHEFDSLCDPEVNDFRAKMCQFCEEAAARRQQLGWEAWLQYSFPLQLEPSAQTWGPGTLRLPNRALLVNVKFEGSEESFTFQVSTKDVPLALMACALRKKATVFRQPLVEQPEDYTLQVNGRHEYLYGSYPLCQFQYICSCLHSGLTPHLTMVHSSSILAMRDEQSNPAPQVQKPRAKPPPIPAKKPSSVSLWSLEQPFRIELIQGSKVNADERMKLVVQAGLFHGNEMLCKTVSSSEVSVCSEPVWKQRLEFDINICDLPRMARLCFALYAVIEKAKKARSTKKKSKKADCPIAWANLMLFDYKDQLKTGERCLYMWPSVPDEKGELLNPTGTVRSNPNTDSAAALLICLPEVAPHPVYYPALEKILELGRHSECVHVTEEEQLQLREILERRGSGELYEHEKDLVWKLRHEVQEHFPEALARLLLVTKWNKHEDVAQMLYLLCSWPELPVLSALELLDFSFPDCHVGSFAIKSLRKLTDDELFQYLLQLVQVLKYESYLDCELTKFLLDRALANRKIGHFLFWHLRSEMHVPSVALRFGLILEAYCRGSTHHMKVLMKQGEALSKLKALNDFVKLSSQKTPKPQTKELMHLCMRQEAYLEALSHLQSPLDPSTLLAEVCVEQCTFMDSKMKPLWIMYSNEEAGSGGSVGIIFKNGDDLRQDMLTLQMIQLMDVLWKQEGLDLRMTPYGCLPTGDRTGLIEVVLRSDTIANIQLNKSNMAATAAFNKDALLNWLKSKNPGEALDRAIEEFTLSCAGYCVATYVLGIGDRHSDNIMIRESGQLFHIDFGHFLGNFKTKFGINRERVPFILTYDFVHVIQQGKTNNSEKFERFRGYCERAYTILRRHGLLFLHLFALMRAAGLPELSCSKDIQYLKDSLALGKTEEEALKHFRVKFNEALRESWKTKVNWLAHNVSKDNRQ
Chain of PIK3CG (human) (P48736 whole entry, looked up): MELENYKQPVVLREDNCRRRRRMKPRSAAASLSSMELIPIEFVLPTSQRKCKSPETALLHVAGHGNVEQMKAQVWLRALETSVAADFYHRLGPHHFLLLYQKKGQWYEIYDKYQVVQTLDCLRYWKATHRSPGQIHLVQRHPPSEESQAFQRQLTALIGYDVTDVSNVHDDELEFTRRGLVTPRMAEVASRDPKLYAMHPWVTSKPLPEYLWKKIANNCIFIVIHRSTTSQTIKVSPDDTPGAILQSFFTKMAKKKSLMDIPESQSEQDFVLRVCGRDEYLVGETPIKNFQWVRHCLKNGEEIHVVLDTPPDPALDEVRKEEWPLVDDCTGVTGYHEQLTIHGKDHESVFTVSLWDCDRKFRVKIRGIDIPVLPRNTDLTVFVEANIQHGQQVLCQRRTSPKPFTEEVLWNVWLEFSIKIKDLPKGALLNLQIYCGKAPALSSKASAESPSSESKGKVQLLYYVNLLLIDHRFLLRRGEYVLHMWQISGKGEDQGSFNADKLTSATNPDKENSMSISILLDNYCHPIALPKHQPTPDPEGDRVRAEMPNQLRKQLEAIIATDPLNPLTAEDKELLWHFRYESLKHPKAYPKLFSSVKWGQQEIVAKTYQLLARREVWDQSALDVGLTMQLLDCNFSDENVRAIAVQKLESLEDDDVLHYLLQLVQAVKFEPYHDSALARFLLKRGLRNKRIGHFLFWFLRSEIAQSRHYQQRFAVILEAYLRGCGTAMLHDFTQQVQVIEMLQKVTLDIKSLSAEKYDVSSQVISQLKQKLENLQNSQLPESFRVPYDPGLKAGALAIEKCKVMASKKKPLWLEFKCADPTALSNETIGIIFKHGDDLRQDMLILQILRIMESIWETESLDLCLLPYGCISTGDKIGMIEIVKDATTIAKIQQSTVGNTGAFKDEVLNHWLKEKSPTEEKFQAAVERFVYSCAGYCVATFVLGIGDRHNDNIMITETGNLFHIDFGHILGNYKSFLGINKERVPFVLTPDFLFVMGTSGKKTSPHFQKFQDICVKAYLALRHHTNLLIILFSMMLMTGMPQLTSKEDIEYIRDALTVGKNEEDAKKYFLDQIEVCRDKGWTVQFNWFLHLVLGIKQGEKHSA

Q: For `Cc1cc(-c2cccc3cc([C@H](C)Nc4ncnc5scnc45)n(-c4ccccc4)c(=O)c23)cnc1C`, which IC50 [1] is on record?
A: Its IC50 is < 100 nM.

Q: And the IC50 [2]?
A: Its IC50 is < 100 nM.

Q: `C[C@H](Nc1ncnc2scnc12)c1cc2cccc(-c3ccc(=O)n(C)c3)c2c(=O)n1-c1ccccc1` was tested. Which IC50 [1] did it give?
A: The IC50 was 100 to 1000 nM.

Q: What about the IC50 [2] of the same compound?
A: Its IC50 is < 100 nM.

Q: And the IC50 [3]?
A: The IC50 was 100 to 1000 nM.

Q: Which IC50 [1] does the source give for `C[C@H](Nc1ncnc2scnc12)c1cc2cccc(-c3cnc(OCc4ccccc4)nc3)c2c(=O)n1-c1ccccc1` here?
A: Its IC50 is 100 to 1000 nM.

Q: And the IC50 [2]?
A: Its IC50 is < 100 nM.

Q: With `C[C@H](Nc1ncnc2scnc12)c1cc2cccc(-c3cncnc3)c2c(=O)n1-c1ccccc1` as the compound, how does the IC50 [1] read?
A: The IC50 was < 100 nM.

Q: What about the IC50 [2] of the same compound?
A: The IC50 was < 100 nM.

Q: Which IC50 [1] does the source give for `C[C@H](Nc1ncnc2scnc12)c1cc2cccc(-c3cccnc3)c2c(=O)n1-c1ccccc1` here?
A: The IC50 was < 100 nM.

Q: And the IC50 [2]?
A: The IC50 was < 100 nM.

Q: How did the IC50 [1] turn out when `C[C@H](Nc1nc(Cl)nc2scnc12)c1cc2cccc(-c3cnn(C)c3)c2c(=O)n1-c1ccccc1` was run?
A: The IC50 was 100 to 1000 nM.

Q: And the IC50 [2]?
A: Its IC50 is < 100 nM.

Q: `COc1ccccc1-c1cccc2cc([C@H](C)Nc3ncnc4scnc34)n(-c3ccccc3)c(=O)c12` was tested. Which IC50 [1] did it give?
A: The IC50 was 100 to 1000 nM.

Q: And the IC50 [2]?
A: The IC50 was < 100 nM.

Q: Which IC50 [1] does the source give for `Cc1c(-c2cccc3cc([C@H](C)Nc4ncnc5scnc45)n(-c4ccccc4)c(=O)c23)cnn1C` here?
A: The IC50 was 100 to 1000 nM.

Q: What about the IC50 [2] of the same compound?
A: Its IC50 is < 100 nM.

Q: `COc1ccc(-c2cccc3cc([C@H](C)Nc4ncnc5scnc45)n(-c4ccccc4)c(=O)c23)cc1` was tested. Which IC50 [1] did it give?
A: The IC50 was < 100 nM.

Q: And the IC50 [2]?
A: Its IC50 is < 100 nM.

Q: `CCn1cc(-c2cccc3cc([C@H](C)Nc4ncnc5scnc45)n(-c4ccccc4)c(=O)c23)cn1` was tested. Which IC50 [1] did it give?
A: The IC50 was < 100 nM.

Q: And the IC50 [2]?
A: Its IC50 is < 100 nM.

Q: Which results are given for `C[C@H](Nc1ncnc2scnc12)c1cc2cccc(/C=C/c3ccccc3)c2c(=O)n1-c1ccccc1`?
A: IC50 [1]: < 100 nM; IC50 [2]: 100 to 1000 nM

Q: How did the IC50 [2] turn out when `Cc1nsc2cc(C(C)Nc3ncnc4scnc34)n(-c3ccccc3)c(=O)c12` (stereo unspecified) was run?
A: The IC50 was < 100 nM.

Q: What about the IC50 [3] of the same compound?
A: The IC50 was > 10000 nM.

Q: Which results are given for `COc1ncc(-c2cccc3cc([C@H](C)Nc4ncnc5scnc45)n(-c4ccccc4)c(=O)c23)cc1C(F)(F)F`?
A: IC50 [1]: < 100 nM; IC50 [2]: < 100 nM

Q: Which results are given for `COc1ncc(-c2cccc3cc([C@H](C)Nc4ncnc5scnc45)n(C4CC4)c(=O)c23)cn1`?
A: IC50 [1]: 100 to 1000 nM; IC50 [2]: < 100 nM

Q: What does the source list for `C[C@H](Nc1ncnc2scnc12)c1cc2cccc(-c3cn[nH]c3)c2c(=O)n1-c1ccccc1`?
A: IC50 [1]: < 100 nM; IC50 [2]: < 100 nM

Q: With `CCCCc1cccc2cc([C@H](C)Nc3ncnc4scnc34)n(-c3ccccc3)c(=O)c12` as the compound, how does the IC50 [1] read?
A: Its IC50 is < 100 nM.

Q: What about the IC50 [2] of the same compound?
A: Its IC50 is < 100 nM.

Q: How did the IC50 [1] turn out when `C[C@H](Nc1ncnc2scnc12)c1cc2cccc(-c3cnn(C)c3)c2c(=O)n1-c1cccc(F)c1` was run?
A: Its IC50 is < 100 nM.

Q: And the IC50 [2]?
A: Its IC50 is < 100 nM.

Q: `C[C@H](Nc1ncnc2scnc12)c1cc2cccc(-c3ccnc(C(F)(F)F)c3)c2c(=O)n1-c1ccccc1` was tested. Which IC50 [1] did it give?
A: The IC50 was 100 to 1000 nM.

Q: And the IC50 [2]?
A: The IC50 was < 100 nM.

Q: Which results are given for `C[C@H](Nc1ccnc2scnc12)c1cc2cccc(-c3cnn(C)c3)c2c(=O)n1-c1ccccc1`?
A: IC50 [1]: < 100 nM; IC50 [2]: < 100 nM

Q: For `COc1cnccc1-c1cccc2cc([C@H](C)Nc3ncnc4scnc34)n(-c3ccccc3)c(=O)c12`, which IC50 [1] is on record?
A: Its IC50 is 100 to 1000 nM.

Q: What about the IC50 [2] of the same compound?
A: The IC50 was 100 to 1000 nM.

Q: Which IC50 [1] does the source give for `Cc1cc(-c2cccc3cc([C@H](C)Nc4ncnc5scnc45)n(-c4ccccc4)c(=O)c23)cnc1F` here?
A: The IC50 was < 100 nM.

Q: What about the IC50 [2] of the same compound?
A: The IC50 was < 100 nM.

Q: With `Cc1ncc(-c2cccc3cc([C@H](C)Nc4ncnc5scnc45)n(C4CC4)c(=O)c23)cn1` as the compound, how does the IC50 [1] read?
A: The IC50 was 100 to 1000 nM.

Q: And the IC50 [2]?
A: The IC50 was < 100 nM.

Q: `COc1ncc(-c2cccc3cc([C@H](C)Nc4ncnc5scnc45)n(-c4ccccc4)c(=O)c23)cc1C` was tested. Which IC50 [1] did it give?
A: The IC50 was < 100 nM.

Q: What about the IC50 [2] of the same compound?
A: The IC50 was < 100 nM.

Q: `Cc1ccc(-c2cccc3cc([C@H](C)Nc4ncnc5scnc45)n(-c4ccccc4)c(=O)c23)cn1` was tested. Which IC50 [1] did it give?
A: Its IC50 is < 100 nM.

Q: What about the IC50 [2] of the same compound?
A: Its IC50 is < 100 nM.

Q: `CCCn1cc(-c2cccc3cc([C@H](C)Nc4ncnc5scnc45)n(-c4ccccc4)c(=O)c23)cn1` was tested. Which IC50 [1] did it give?
A: Its IC50 is 100 to 1000 nM.

Q: And the IC50 [2]?
A: Its IC50 is < 100 nM.

Q: Which IC50 [2] does the source give for `C[C@H](Nc1ncnc2scnc12)c1cc2cccc(-c3cnn(C)c3)c2c(=O)n1C` here?
A: Its IC50 is 100 to 1000 nM.

Q: For `COc1ccc(-c2cccc3cc([C@H](C)Nc4ncnc5scnc45)n(-c4ccccc4)c(=O)c23)cn1`, which IC50 [1] is on record?
A: The IC50 was < 100 nM.

Q: And the IC50 [2]?
A: Its IC50 is < 100 nM.

Q: Which results are given for `C[C@H](Nc1ncnc2scnc12)c1cc2ccccc2c(=O)n1-c1ccccc1`?
A: IC50 [1]: < 100 nM; IC50 [2]: < 100 nM
